From patent US12479816B2, “20-HETE formation inhibitors” (UNIVERSITY OF PITTSBURGH—OF THE COMMONWEALTH SYSTEM OF …, priority 2019, dated 2025)
Like-named read-outs stand apart in the source and are kept apart here.

Columns and labels:
[1] = tested on: 20-HETE formation (CYP4) in RKM; experiment: Inhibition of 20-HETE formation at 250 or 500 nM in RKM microsomal incubations; type: biochemical, rat; conditions: RKM 300 μg/ml; for RKM % inh. @ 500 nM: 500 nM compound; for RKM % inh. @ 250 nM: 250 nM compound
Experimental: To screen the inhibitory effects against 20-HETE formation, compounds were screened in HLM, RLM, RKM and rCYP4F2 microsomal incubations. Compounds dissolved in either 100% methanol or 100% DMSO to yield 10 mM stock solution. Microsomal incubations containing HLM, RLM, RKM (300 μg/ml) or rCYP4F2 (25 pmol/mL), AA (100 μM), NADPH (1 mM) treated with test compounds at various concentrations (500 nM or 250 nM) in a 1 ml total volume in incubation buffer (0.12 M potassium phosphate buffer containing 5 mM magnesium chloride). Reaction was started by adding NADPH to the incubates and was carried out at 37° C. in a shaking water bath for 20 min. Reaction was stopped by placing tubes on ice, followed by adding 125 μl 20-HETE-d6 as internal standard to each sample. Microsomal incubations were extracted with 3 ml ethyl ether twice, dried down under nitrogen gas and reconstituted in 125 μl 80:20 methanol:deionized H2O for analysis. 20-HETE formation was quantified using a validated UPLC-MS/MS assay and normalized by vehicle group. Each compound had three replications (n=3). Vehicle group was used as control to calculate percentage of 20-HETE formation rate. HET0016 (250 nM) was used as positive control. Incubates without NADPH group served as the negative control. An Acquity ultra performance LC autosampler (Waters, Milford, MA) was used to isolate 20-HETE on an UPLC BEH C18, 1.7 μm (2.1×100 mm) reversed-phase column (Waters, Milford, MA) protected by a guard column (2.1×5 mm; Waters, Milford, MA) of the same packing material. Column temperature was maintained at 55° C. Mobile phases consisted of 0.005% acetic acid, 5% acetonitrile in deionized water (A) and 0.005% acetic acid in acetonitrile (B). The flow rate for mobile phases is 0.5 ml/min. The initial mixture of mobile phase was 65:35 of A and B. Mobile phase B increased at 0.4 minutes after injection from 35% to 70% in a linear gradient over 4 minutes, and again increased to 95% over 0.5 minutes where it remained for 0.3 minutes. This was followed by a linear return to initial conditions over 0.1 minutes with a 1.5 minute pre-equilibration period prior to the next sample run. Total run time was 6.4 minutes for each injection. Injection volumes were 7.5 μl. Mass spectrometric analysis was carried out using a TSQ Quantum Ultra (Thermo Fisher Scientific, San Jose, CA) triple quadrupole mass spectrometer using heated electrospray ionization (HESI). Mass spectrometer was operated in negative selective reaction monitoring (SRM) mode with unit resolutions at both Q1 and Q3 set at 0.70 Da full width at half maximum. Scan time was set at 0.01 s and collision gas pressure was 1.3 mTorr. Quantitation of 20-HETE by SRM was performed by monitoring the m/z. Analytical data was acquired and analyzed using Xcaliber 3.0 data system (ThermoFinnigan, San Jose, CA).

rCYP4F2 = biological target: T1, rCYP4F2 (Homo sapiens, UniProt P78329); experiment: Inhibition of 20-HETE formation at 250 or 500 nM in rCYP4F2 incubations; type: biochemical; conditions: rCYP4F2 25 pmol/mL; for inhibition at 0.5 µM: 500 nM compound, read-out: rCYP4F2 % inh. @ 500 nM; for inhibition at 0.25 µM: 250 nM compound, read-out: rCYP4F2 % inh. @ 250 nM
T1 sequence (P78329 5-520): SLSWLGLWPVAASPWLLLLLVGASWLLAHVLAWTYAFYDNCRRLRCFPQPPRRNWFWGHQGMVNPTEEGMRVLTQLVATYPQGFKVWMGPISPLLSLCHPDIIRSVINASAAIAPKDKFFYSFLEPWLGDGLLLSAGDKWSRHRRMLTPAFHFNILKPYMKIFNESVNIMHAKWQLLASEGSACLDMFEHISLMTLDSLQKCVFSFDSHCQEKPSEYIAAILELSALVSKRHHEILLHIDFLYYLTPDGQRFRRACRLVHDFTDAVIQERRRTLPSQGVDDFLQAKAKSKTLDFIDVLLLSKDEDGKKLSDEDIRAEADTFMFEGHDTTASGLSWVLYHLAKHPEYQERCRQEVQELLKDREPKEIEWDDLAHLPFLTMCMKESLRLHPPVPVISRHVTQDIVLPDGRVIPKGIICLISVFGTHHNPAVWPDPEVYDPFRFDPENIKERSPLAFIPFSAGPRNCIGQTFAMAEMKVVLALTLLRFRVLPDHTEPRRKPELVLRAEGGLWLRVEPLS
Summary of the method: (§1)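 Protein 300 μg/ml (microsomes) / 25 pmol/mL (rCYP4F2); AA 100 μM; NADPH 1 mM start; KPi 0.12 M + 5 mM MgCl2; 20 min, 37° C. Read-out: 20-HETE by UPLC-MS/MS (d6 IS), % of vehicle, n=3.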

[2] = tested on: 20-HETE formation (CYP4) in HLM; experiment: Inhibition of 20-HETE formation at 250 or 500 nM in HLM microsomal incubations; type: biochemical, human; conditions: HLM 300 μg/ml, AA 100 μM, 20 min; for HLM % inh. @ 500 nM: 500 nM compound; for HLM % inh. @ 250 nM: 250 nM compound
Summary of the method: as §1

[3] = tested on: 20-HETE formation (CYP4) in RLM; experiment: Inhibition of 20-HETE formation at 250 or 500 nM in RLM microsomal incubations; type: biochemical, rat; conditions: RLM 300 μg/ml; for RLM % inh. @ 500 nM: 500 nM compound; for RLM % inh. @ 250 nM: 250 nM compound
Summary of the method: as §1

[4] = Turbidometric solubility determination; type: physicochemical; conditions: PBS with 1% DMSO, aqueous buffer, kinetic from dmso stock, room temperature
Experimental: Solubility determinations shown in Table 3 were obtained turbidometrically and in a manner similar to the one described in Perez et al., J. Biomol. Screen, 2015, 20(2), 254-64. The method requires small volumes of 100× stock concentration drug solution to be prepared in DMSO 0, 0.23, 0.47, 0.94, 1.88, 3.75, 7.5, 15.0, 30.0 and […]. The stock drug concentrations are then diluted 1:100 added into triplicate wells containing PBS in a clear bottom 384 well microtiter to achieve final testing concentrations of 0, 2.3, 4.7, 9.4, 18.8, 37.5, 75, 150, 300, 600 μM in 1% DMSO. The plate is allowed to equilibrate with constant shaking for 2 hours at room temperature. The plate is then placed in a SpectroMax V plate reader to measure absorbance at 620 nm. Increase in absorbance is evident in test wells which precipitation of the compound is evident. The plot of OD620 vs. drug concentration is used to calculate the maximum solubility limit as determined by a statistically significant increase in absorbance above the background levels.

Row | SMILES | RKM % inh. @ 500 nM [1] [%] | inhibition at 0.5 µM (rCYP4F2) [%] | HLM % inh. @ 500 nM [2] [%] | RLM % inh. @ 500 nM [3] [%] | solubility at 2 h ([4]; OD620, read-out: Max Solub) [µM] | solubility at 2 h ([4]; read-out: Solubility_ug/mL) [µg/mL] | RKM % inh. @ 250 nM [1] [%] | inhibition at 0.25 µM (rCYP4F2) [%] | HLM % inh. @ 250 nM [2] [%] | RLM % inh. @ 250 nM [3] [%]
1 | COc1cc(C2CCN(c3ccn[nH]3)CC2)ccn1 [Compound 16, 4-(1-(1H-Pyrazol-5-yl)piperidin-4-yl)-2-methoxypyridine] | 0.00 | 28 | 27.00 | 29.00 |  |  |  |  |  | 
2 | Fc1ccc(C2CCN(c3ccn[nH]3)CC2)cc1 [Compound 18, 4-(4-Fluorophenyl)-1-(1H-pyrazol-5-yl)piperidine] | 0.00 | 70 | 66.00 | 41.00 |  |  |  |  |  | 
3 | CC(=O)N(C)c1ccc(C2CCN(c3ccn[nH]3)CC2)cc1 [Compound 27, N-(4-(1-(1H-Pyrazol-5-yl)piperidin-4-yl)phenyl)-N-methylacetamide] | 0.00 | 14 | 20.00 | 8.00 | > 600 | 179 |  |  |  | 
4 | COc1ccc(C2CCN(c3ccn[nH]3)CC2)cn1 [Compound 31, 5-(1-(1H-Pyrazol-5-yl)piperidin-4-yl)-2-methoxypyridine] | 9.00 | 44 | 35.00 | 0.00 | > 600 | 155 |  |  |  | 
5 | O=S(=O)(c1ccccc1)C1CCN(c2ccn[nH]2)CC1 [Compound 41, 4-(Phenylsulfonyl)-1-(1H-pyrazol-5-yl)piperidine] | 0.00 | 0 | 32.00 | 0.00 | 369 | 108 |  |  |  | 
6 | COc1ccc(C2CCN(c3ccn[nH]3)CC2)cc1F [Compound 43, 4-(3-Fluoro-4-methoxyphenyl)-1-(1H-pyrazol-5-yl)piperidine] | 31.00 | 79 | 82.00 | 17.00 |  |  |  |  |  | 
7 | Fc1cccc(C2CCN(c3ccn[nH]3)CC2)c1 [Compound 48, 4-(3-Fluorophenyl)-1-(1H-pyrazol-5-yl)piperidine] | 8.00 | 63 | 67.00 | 0.00 |  |  |  |  |  | 
8 | c1ccc(N2CCN(c3ccn[nH]3)CC2)cc1 [Compound 53, 1-Phenyl-4-(1H-pyrazol-5-yl)piperazine] |  |  |  |  |  |  | 8.20 | 3.9 | 14.90 | 4.30
9 | c1ccc(OC2CCN(c3ccn[nH]3)CC2)cc1 [Compound 55, 4-Phenoxy-1-(1H-pyrazol-5-yl)piperidine] |  |  |  |  |  |  | 0.00 | 0 | 12.11 | 0.00

Other lines, results leading:

Row | RKM % inh. @ 500 nM [1] [%] | inhibition at 0.5 µM (rCYP4F2) [%] | HLM % inh. @ 500 nM [2] [%] | RLM % inh. @ 500 nM [3] [%] | solubility at 2 h ([4]; OD620, read-out: Max Solub) [µM] | solubility at 2 h ([4]; read-out: Solubility_ug/mL) [µg/mL] | RKM % inh. @ 250 nM [1] [%] | inhibition at 0.25 µM (rCYP4F2) [%] | HLM % inh. @ 250 nM [2] [%] | RLM % inh. @ 250 nM [3] [%] | SMILES
10 | 25.00 | 83 | 80.00 | 57.00 |  |  |  |  |  |  | Fc1ccc(C2CCN(c3cn[nH]c3)CC2)cc1 [Compound 17, 4-(4-Fluorophenyl)-1-(1H-pyrazol-4-yl)piperidine]
11 | 4.00 | 20 | 20.00 | 0.00 |  |  |  |  |  |  | Cc1ccccc1C1CCN(c2ccn[nH]2)CC1 [Compound 35, 1-(1H-Pyrazol-5-yl)-4-(o-tolyl)piperidine]
12 | 0.00 | 28 | 5.00 | 0.00 |  |  |  |  |  |  | O=S(=O)(c1ccccc1)C1CCN(c2cn[nH]c2)CC1 [Compound 42, 4-(Phenylsulfonyl)-1-(1H-pyrazol-4-yl)piperidine]
13 | 0.00 | 73 | 71.00 | 24.00 |  |  |  |  |  |  | COc1cccc(CC2CCN(c3cn[nH]c3)CC2)c1 [Compound 45, 4-(3-Methoxybenzyl)-1-(1H-pyrazol-4-yl)piperidine]
14 | 0.00 | 88 | 78.00 | 47.00 |  |  |  |  |  |  | COc1ccc(C2CCN(c3ccn[nH]3)CC2)c(F)c1 [Compound 46, 4-(2-Fluoro-4-methoxyphenyl)-1-(1H-pyrazol-5-yl)piperidine]
15 | 28.00 | 90 | 80.00 | 31.00 |  |  |  |  |  |  | Fc1cccc(C2CCN(c3cn[nH]c3)CC2)c1 [Compound 49, 4-(3-Fluorophenyl)-1-(1H-pyrazol-4-yl)piperidine]
16 | 18.00 | 69 | 47.00 | 16.00 |  |  |  |  |  |  | Fc1ccccc1C1CCN(c2ccn[nH]2)CC1 [Compound 50, 4-(2-Fluorophenyl)-1-(1H-pyrazol-5-yl)piperidine]
17 | 26.00 | 94 | 77.00 | 53.00 |  |  |  |  |  |  | Fc1ccccc1C1CCN(c2cn[nH]c2)CC1 [Compound 51, 4-(2-Fluorophenyl)-1-(1H-pyrazol-4-yl)piperidine]
